In the oligonucleotide strings, read from the 5' end, every base follows the letter of its sugar. An asterisk marks phosphorothioate; unmarked linkages are phosphodiester. Other units and linkages are bracketed, terminal groups are in braces. A string of capitals states the bases alone. {NAG37} = tridentate N-acetyl-galactosamine targeting ligand, structure (NAG37)s; [invAb] = inverted abasic unit; m = 2'-O-methyl; f = 2'-fluoro
Legend:
[1] = test system: ANGPTL3 protein; assay: Example 10: serum ANGPTL3 protein by ELISA in mice; assay type: in vivo; conditions: 0.5 mg/kg single SC injection day 1, female C57bl/6 mice, n=3, ratio to D5W control
Procedure: To assess the in vivo activity of further ANGPTL3 RNAi agents that are designed to target position 304 on the ANGPTL3 gene, six- to eight-week-old female C57bl/6 mice were used. Pre-dose serum samples were taken at day −1 after a four hour fast. At day 1, each mouse was given a single subcutaneous administration of 200 μl containing 0.5 mg/kg (mpk) of an ANGPTL3 RNAi agent in D5W (dextrose in 5% water), or control (D5W) with no RNAi agent, according to the dosing groups recited in Table 47.
Each of the RNAi agents included a modified sequence and an N-acetyl-galactosamine-containing targeting ligand conjugated to the 5′ terminal end of the sense strand. (See Tables 3, 4, and 5 for modified sequences and targeting ligand structures). As noted above, each of the ANGPTL3 RNAi agents dosed in this study included nucleotide sequences designed to target the ANGPTL3 gene at position 304. The injections were performed between the skin and muscle (i.e. subcutaneous injections) into the loose skin over the neck and shoulder area. Three (3) mice in each group were tested (n=3). Serum was collected on days 8, 15, 22, 29, and for some groups on day 36 (i.e., Groups 1, 2, and 9-13 only). Mice were fasted for four hours prior to each collection. ANGPTL3 protein levels in serum were measured by ELISA assay (R&D Systems), according to the manufacturer's recommendations. Triglycerides, total cholesterol, high-density lipoprotein (HDL), and low-density lipoprotein (LDL) in serum were measured on a Cobas® Integra 400 (Roche Diagnostics), according to the manufacturer's recommendations.
The ANGPTL3 protein levels, triglyceride levels, total cholesterol levels, HDL levels, and LDL levels for each animal were normalized. For normalization, the level of ANGPTL3 protein, triglyceride, HDL, and total cholesterol, respectively, for each animal at a time point, was divided by the pre-treatment level of expression in that animal (in this case at day −1) to determine the ratio of expression “normalized to pre-treatment.” Expression at a specific time point was then normalized to the D5W control group by dividing the “normalized to pre-treatment” ratio for an individual animal by the mean “normalized to pretreatment” ratio of all mice in the D5W control group.

[2] = test system: ANGPTL3 protein; assay: Example 14: RNAi agent and statin, serum ANGPTL3 protein by ELISA in LDLR knockout mice; assay type: in vivo, LDLR KO mice
Text: To evaluate the effect of co-administration of RNAi agents and statins in a disease model, LDLR KO mice were commercially obtained (The Jackson Laboratory). For three weeks prior to the onset of the study, forty-one (41) male 7 to 8 week old LDLR KO mice were placed on a high fat (“western”) diet (Teklad Custom Diets TD.88137), and remained on that diet throughout the duration of the study. Pre-dose serum samples were taken on study Day 1 after a four hour fast. The dosing regimen for the study is recited in the following Table 72:
• Mice were treated at 40 mg/kg for the first 11 days, then switched to 20 mg/kg thereafter.
The vehicle used for the oral gavage in the study was a 1:1 mixture of Ora-Plus®: Ora-Sweet® solution, which were acquired commercially. For the preparation of the atorvastatin oral gavage administrations, the respective desired dose of atorvastatin was first dissolved in sterile water (0.3 mL water per 1 mL of desired formulation) and vortexed until smooth, followed by the addition of a mixture of 1:1 Ora-Plus®: Ora-Sweet® solution (0.7 mL vehicle per 1 mL of desired formulation) and vortexed. On day 1 and for each day thereafter an oral gavage dose was administered for each of the Groups except for Group 2. On Day 23, Groups 1, 2, 3, and 4 received a single subcutaneous administration of 2.5 mg/kg dose ([…] solution) of an ANGPTL3 RNAi agent in D5W (dextrose in 5% water), or vehicle control (D5W) with no RNAi agent.
The RNAi agent tested (AD05488) included a modified sequence and an N-acetyl-galactosamine-containing targeting ligand conjugated to the 5′ terminal end of the sense strand. (See Tables 3, 4, and 5 for modified sequences and targeting ligand structures). The injections were performed between the skin and muscle (i.e. subcutaneous injections) into the loose skin over the neck and shoulder area. Serum was collected on days 8, 15, 22 (pre-RNAi agent injection), 29, 36, 43, and 50. LDLR KO mice were fasted for four hours prior to each collection.
ANGPTL3 protein levels in serum were measured by ELISA assay (R&D Systems), according to the manufacturer's recommendations. Among other biomarkers, triglycerides, total cholesterol, and low-density lipoprotein (LDL) in serum were measured on a Cobas® Integra 400 (Roche Diagnostics), according to the manufacturer's recommendations.
The ANGPTL3 protein levels, triglyceride levels, total cholesterol levels, HDL levels, and LDL levels for each animal were normalized. For normalization, respective levels of ANGPTL3 protein, TG, total cholesterol, or LDL for each animal at a time point was divided by the pre-treatment level of expression in that animal (in this case pre-dose levels on Day 1) to determine the ratio of expression “normalized to pre-treatment.” Data from the study set forth in this Example are shown in the following Tables 73-76: […]

With “AD05488: RNAi agent duplex: antisense AM07235-AS, sense AM07234-SS (antisense mU*fA*mC*fUmGfAmUfCmAfAmAfUmAfUmGfUmUfGmAfG*mC; sense {NAG37}*[invAb]*mGmCmUmCmAmAmCmAfUfAfUmUmUmGmAmUmCmAmGmUmA*[invAb])” the “Average ANGPTL3 Protein Normalized to Pre-Treatment and Control” value (“Average ANGPTL3 Protein Normalized” for short) ([1]; Day 8) was 0.179, the “Average ANGPTL3 Protein Normalized” value ([1]; Day 15) was 0.197 and the “Average ANGPTL3 Protein Normalized” value ([1]; Day 22) was 0.196. For the same substance, the “Average ANGPTL3 Protein Normalized” value ([1]; Day 29) was 0.258, the “Average ANGPTL3 Protein Normalized” value ([1]; Day 36) was 0.297 and the “Avg ANGPTL3 normalized to pre-treatment” value ([2]; Group 2: no gavage, 2.5 mg/kg AD05488 SC on day 23, Day 8 (pre-RNAi agent injection)) was 1.419. The “Avg ANGPTL3 normalized to pre-treatment” value ([2]; Group 2: no gavage, 2.5 mg/kg AD05488 SC on day 23, Day 15 (pre-RNAi agent injection)) was 1.584, the “Avg ANGPTL3 normalized to pre-treatment” value ([2]; Group 2: no gavage, 2.5 mg/kg AD05488 SC on day 23, Day 22 (pre-RNAi agent injection)) was 1.658 and the “Avg ANGPTL3 normalized to pre-treatment” value ([2]; Group 2: no gavage, 2.5 mg/kg AD05488 SC on day 23, Day 29) was 0.023. For the same substance, the “Avg ANGPTL3 normalized to pre-treatment” value ([2]; Group 2: no gavage, 2.5 mg/kg AD05488 SC on day 23, Day 36) was 0.012, the “Avg ANGPTL3 normalized to pre-treatment” value ([2]; Group 2: no gavage, 2.5 mg/kg AD05488 SC on day 23, Day 43) was 0.020 and the “Avg ANGPTL3 normalized to pre-treatment” value ([2]; Group 2: no gavage, 2.5 mg/kg AD05488 SC on day 23, Day 50) was 0.026. For the same substance, the “Avg ANGPTL3 normalized to pre-treatment” value ([2]; Group 3: 10 mg/kg daily oral gavage atorvastatin, 2.5 mg/kg AD05488 on day 23, Day 8 (pre-RNAi agent injection)) was 1.597, the “Avg ANGPTL3 normalized to pre-treatment” value ([2]; Group 3: 10 mg/kg daily oral gavage atorvastatin, 2.5 mg/kg AD05488 on day 23, Day 15 (pre-RNAi agent injection)) was 1.765 and the “Avg ANGPTL3 normalized to pre-treatment” value ([2]; Group 3: 10 mg/kg daily oral gavage atorvastatin, 2.5 mg/kg AD05488 on day 23, Day 22 (pre-RNAi agent injection)) was 1.681. For the same substance, the “Avg ANGPTL3 normalized to pre-treatment” value ([2]; Group 3: 10 mg/kg daily oral gavage atorvastatin, 2.5 mg/kg AD05488 on day 23, Day 29) was 0.015, the “Avg ANGPTL3 normalized to pre-treatment” value ([2]; Group 3: 10 mg/kg daily oral gavage atorvastatin, 2.5 mg/kg AD05488 on day 23, Day 36) was 0.005 and the “Avg ANGPTL3 normalized to pre-treatment” value ([2]; Group 3: 10 mg/kg daily oral gavage atorvastatin, 2.5 mg/kg AD05488 on day 23, Day 43) was 0.007. The “Avg ANGPTL3 normalized to pre-treatment” value ([2]; Group 3: 10 mg/kg daily oral gavage atorvastatin, 2.5 mg/kg AD05488 on day 23, Day 50) was 0.010, the “Avg ANGPTL3 normalized to pre-treatment” value ([2]; Group 4: 20 mg/kg* daily oral gavage atorvastatin (40 mg/kg first 11 days), 2.5 mg/kg AD05488 on day 23, Day 8 (pre-RNAi agent injection)) was 1.683 and the “Avg ANGPTL3 normalized to pre-treatment” value ([2]; Group 4: 20 mg/kg* daily oral gavage atorvastatin (40 mg/kg first 11 days), 2.5 mg/kg AD05488 on day 23, Day 15 (pre-RNAi agent injection)) was 1.999. For the same substance, the “Avg ANGPTL3 normalized to pre-treatment” value ([2]; Group 4: 20 mg/kg* daily oral gavage atorvastatin (40 mg/kg first 11 days), 2.5 mg/kg AD05488 on day 23, Day 22 (pre-RNAi agent injection)) was 1.675, the “Avg ANGPTL3 normalized to pre-treatment” value ([2]; Group 4: 20 mg/kg* daily oral gavage atorvastatin (40 mg/kg first 11 days), 2.5 mg/kg AD05488 on day 23, Day 29) was 0.022 and the “Avg ANGPTL3 normalized to pre-treatment” value ([2]; Group 4: 20 mg/kg* daily oral gavage atorvastatin (40 mg/kg first 11 days), 2.5 mg/kg AD05488 on day 23, Day 36) was 0.004. The “Avg ANGPTL3 normalized to pre-treatment” value ([2]; Group 4: 20 mg/kg* daily oral gavage atorvastatin (40 mg/kg first 11 days), 2.5 mg/kg AD05488 on day 23, Day 43) was 0.005, the “Avg ANGPTL3 normalized to pre-treatment” value ([2]; Group 4: 20 mg/kg* daily oral gavage atorvastatin (40 mg/kg first 11 days), 2.5 mg/kg AD05488 on day 23, Day 50) was 0.010 and the “reduction in ANGPTL3 protein levels” value ([2]; single 2.5 mg/kg subcutaneous on Day 23, LDLR KO mice on high fat diet) was “clear reduction”.

Reference: patent US12729377B2, “RNAi agents and compositions for inhibiting expression of angiopoietin-like 3 (ANGPTL3), and methods of use” (Arrowhead Pharmaceuticals, Inc., priority 2017, dated 2026)
